Reference: patent publication US20100063126A1, “Carbazole-Derived Pharmaceutical Compositions” (JadoLabs GmbH, priority 2004, published 2010)

Assays:
RBL-2H3 cells = assay: Degranulation assay (β-hexosaminidase release); format: cell-based, Rat
[1] = Disrafter-Liposome Raftophile Assay (D-LRA); settings: 100 μM
influenza virus = assay: Virus budding assay (influenza assay); format: cell-based
PR8 virus = assay: microbe, parasite or virus in culture; format: cell-based; settings: unidentified influenza virus, PR8, MDCK; for inhibition at 3.125 µM: read-out: inhibition of virus replication / infection
Wild type SV40 viruses = format: cell-based, Simian Virus 40; settings: 15CM, HeLa cells, compared to solvent control
[2] = tested on: vesicular stomatitis virus (VSV); format: cell-based; settings: HeLa cells
HIV-1 strain NL4-3 = assay: microbe, parasite or virus in culture; format: cell-based; settings: Human immunodeficiency virus 1, NL43, HeLa TZM cells, compared to solvent, read-out: inhibition of HIV infection
[3] = Rattus norvegicus, RBL-2H3, read-out: inhibition of release of β-hexosaminidase

In the case of `Cc1c(C)c2c(c(C)c1O)CC[C@@](C)(CCC[C@H](C)CCC[C@H](C)CCCC(C)C)O2` [Alpha-(+)-tocopherol], the “activity in mast cell degranulation assay” value (RBL-2H3 cells) is reported as “moderately active”.

With `CC(C)=CCc1ccc2[nH]c3c(c2c1)C(=O)C(=O)C(C)=C3C[C@@H](C)O` [Compound 21a] the inhibition at 100 µM (RBL-2H3 cells; [3]) was 46% and the “disrafting activity (% disrafting)” value ([1]; perylene as marker) was 47.2%.

With `CCCCCCCC1=C(C)C(=O)C(=O)c2c1[nH]c1ccccc21` [Compound 21b] the “inhibition in influenza virus budding assay” value (influenza virus) was “inhibitory” and the inhibition at 25 µM (PR8 virus; read-out: inhibition of virus replication) was 18.3%.

In the case of `CC1=C(Cc2ccc3[nH]c4c(c3c2)C(=O)C(=O)C(C)=C4CC(C)O)CCC(C)(C)C1` (centres unmarked) [Compound 22a], the “inhibition in influenza virus budding assay” value (influenza virus) is reported as “inhibitory”, the inhibition at 3.125 µM (PR8 virus) is reported as 24.2% and the “inhibition of SV40 infection” value (Wild type SV40 viruses) is reported as 19%. For the same molecule, the “inhibitory effect on viral infection in VSV counterscreen” value [2] was “no inhibitory effect on viral infection at all” and the inhibition at 10 µM (HIV-1 strain NL4-3) was 15%.

For `CCCCCCCC1(O)C(C)=C(OC)C(=O)c2c1[nH]c1ccccc21` (centres unmarked) [Compound 22c], the “inhibition in influenza virus budding assay” value (influenza virus) was “inhibitory”, the inhibition at 3.125 µM (PR8 virus) was 60.2% and the inhibition at 50 µM (RBL-2H3 cells; [3]) was 12%. For the same molecule, the inhibition at 10 µM (HIV-1 strain NL4-3) was 44%.

`CCCCCCCc1c(C)c(OC)c(OC)c2c1[nH]c1ccccc12` [Compound 22d] showed an inhibition at 10 µM (HIV-1 strain NL4-3) of 21%.

With `CCCCCCCc1c(C)c(O)cc2c1[nH]c1ccccc12` [Compound 23d] the inhibition at 100 µM (RBL-2H3 cells; [3]) was 15%, the inhibition at 10 µM (HIV-1 strain NL4-3) was 20% and the “disrafting activity (% disrafting)” value ([1]; GS-96 as marker) was -97.3%.

For `CCCCCCCc1c(C)c(OC)cc2c1[nH]c1ccccc12` [Compound 24d], the “inhibition in influenza virus budding assay” value (influenza virus) was “inhibitory”, the inhibition at 100 µM (PR8 virus; read-out: inhibition of virus infection) was 50.9% and the “disrafting activity (% disrafting)” value ([1]; perylene as marker) was -98.5%.

For `CCCCCCCCCCCCCCCCCCOc1cc2[nH]c3cc(OC)ccc3c2cc1C` [Compound 25d], the “inhibition in influenza virus budding assay” value (influenza virus) was “inhibitory” and the inhibition at 3.125 µM (PR8 virus) was 18.4%.
